Results reported in US9771334B2, “Triketone compound and preparation method and use thereof” (SHANDONG CYNDA CHEMICAL CO., LTD., priority 2013, dated 2017).

What was measured:
Experiment in all cases: Herbicidal activity, pot culture method (primary and secondary screening test)
Assay type in all cases: in vivo
Details in all cases: primary screening, pot culture, 150 g/ha, sprayed at 3-leaf stage, result 15 days later
echinochloa crusgalli = system: echinochloa crusgalli
From the text: (§1) This test example is for describing the herbicidal activity inhibition ratio (%) (the dose is 150 g/ha) of the compound with a structure shown in Formula (I). Primary screening test (pot culture method): The test targets are abutilon theophrasti, digitaria sanguinalis, amaranthus retroflexus, echinochloa crusgalli, eclipta prostrata and setaria viridis. Take flowerpots with an inner diameter of 6 cm, put composite soil (vegetable garden soil:seedling matrix=1:2, v/v) into them till 3⁄4 of flowerpot height, directly sow the above six weed targets (budding rate>85%), cover them with 0.2 cm thick soil, and keep them for future use when the weeds grow to 3-leaf stage. Each compound is dissolved in N,N-dimethylformamide at a dose of 150 g/ha and diluted with distilled water into a 0.2 g/L solution. The solution is sprayed through an automatic spray tower. After the solution on weed leaves is aired dry, the flowerpots are moved into a greenhouse for cultivation. The result is investigated 15 days later. By the same method adopted in primary screening test, a secondary screening test is done on some typical compounds, such as: 5, 6, 20, 21, 23, 34, 47, 65, 66, 70 and 91 at a reduced dose, and the test result is compared with mesotrione which is commercially available and has a good herbicidal effect. The test method is same as that adopted in primary screening test. Mesotrione is bought from Hubei […] Chemical Co., Ltd.

amaranthus retroflexus = system: amaranthus retroflexus
From the text: as §1

abutilon theophrasti = system: abutilon theophrasti
From the text: as §1

digitaria sanguinalis = system: digitaria sanguinalis
From the text: as §1

eclipta prostrata = system: eclipta prostrata
From the text: as §1

setaria viridis = system: setaria viridis
From the text: as §1

COc1cccc(Cn2c(=O)n(-c3ccccc3C)c(=O)c3cc(C(=O)C4=C(O)CC(C)(C)CC4=O)ccc32)c1 [Compound 81]
herbicidal activity inhibition ratio (%), Echinochloa crusgalli (echinochloa crusgalli): 0%
herbicidal activity inhibition ratio (%), Amaranthus retroflexus (amaranthus retroflexus): 0%
herbicidal activity inhibition ratio (%), Abutilon theophrasti (abutilon theophrasti): 0%
herbicidal activity inhibition ratio (%), Digitaria sanguinalis (digitaria sanguinalis): 0%
herbicidal activity inhibition ratio (%), Eclipta prostrata (eclipta prostrata): 0%
herbicidal activity inhibition ratio (%), Setaria viridis (setaria viridis): 10%

CCc1ccccc1-n1c(=O)c2cc(C(=O)C3=C(O)CC(C)(C)CC3=O)ccc2n(C)c1=O [Compound 89]
herbicidal activity inhibition ratio (%), Echinochloa crusgalli (echinochloa crusgalli): 80%
herbicidal activity inhibition ratio (%), Amaranthus retroflexus (amaranthus retroflexus): 100%
herbicidal activity inhibition ratio (%), Abutilon theophrasti (abutilon theophrasti): 100%
herbicidal activity inhibition ratio (%), Digitaria sanguinalis (digitaria sanguinalis): 60%
herbicidal activity inhibition ratio (%), Eclipta prostrata (eclipta prostrata): 70%
herbicidal activity inhibition ratio (%), Setaria viridis (setaria viridis): 75%

Cc1ccccc1-n1c(=O)c2cc(C(=O)C3=C(O)CC(C)(C)CC3=O)ccc2n(CC(C)C)c1=O [Compound 76]
herbicidal activity inhibition ratio (%), Echinochloa crusgalli (echinochloa crusgalli): 0%
herbicidal activity inhibition ratio (%), Amaranthus retroflexus (amaranthus retroflexus): 0%
herbicidal activity inhibition ratio (%), Abutilon theophrasti (abutilon theophrasti): 20%
herbicidal activity inhibition ratio (%), Digitaria sanguinalis (digitaria sanguinalis): 0%
herbicidal activity inhibition ratio (%), Eclipta prostrata (eclipta prostrata): 0%
herbicidal activity inhibition ratio (%), Setaria viridis (setaria viridis): 10%

Cn1c(=O)n(-c2ccc(Cl)cc2)c(=O)c2cc(C(=O)C3=C(O)CCCC3=O)ccc21 [Compound 1, 3-(4-chlorphenyl)-6-[(2-hydroxy-6-oxo-1-cyclohexenyl)carbonyl]-1-methylquinazoline-2,4(1H,3H)-dione]
herbicidal activity inhibition ratio (%), Echinochloa crusgalli (echinochloa crusgalli): 90%
herbicidal activity inhibition ratio (%), Amaranthus retroflexus (amaranthus retroflexus): 90%
herbicidal activity inhibition ratio (%), Abutilon theophrasti (abutilon theophrasti): 90%
herbicidal activity inhibition ratio (%), Digitaria sanguinalis (digitaria sanguinalis): 90%
herbicidal activity inhibition ratio (%), Eclipta prostrata (eclipta prostrata): 85%
herbicidal activity inhibition ratio (%), Setaria viridis (setaria viridis): 100%

COc1ccccc1-n1c(=O)c2cc(C(=O)C3=C(O)CC(C)(C)CC3=O)ccc2n(C)c1=O [Compound 48]
herbicidal activity inhibition ratio (%), Echinochloa crusgalli (echinochloa crusgalli): 85%
herbicidal activity inhibition ratio (%), Amaranthus retroflexus (amaranthus retroflexus): 95%
herbicidal activity inhibition ratio (%), Abutilon theophrasti (abutilon theophrasti): 50%
herbicidal activity inhibition ratio (%), Digitaria sanguinalis (digitaria sanguinalis): 85%
herbicidal activity inhibition ratio (%), Eclipta prostrata (eclipta prostrata): 85%
herbicidal activity inhibition ratio (%), Setaria viridis (setaria viridis): 50%

Cn1c(=O)n(-c2cc(C(F)(F)F)ccc2Cl)c(=O)c2cc(C(=O)C3=C(O)CCCC3=O)ccc21 [Compound 60]
herbicidal activity inhibition ratio (%), Echinochloa crusgalli (echinochloa crusgalli): 65%
herbicidal activity inhibition ratio (%), Amaranthus retroflexus (amaranthus retroflexus): 70%
herbicidal activity inhibition ratio (%), Abutilon theophrasti (abutilon theophrasti): 100%
herbicidal activity inhibition ratio (%), Digitaria sanguinalis (digitaria sanguinalis): 40%
herbicidal activity inhibition ratio (%), Eclipta prostrata (eclipta prostrata): 0%
herbicidal activity inhibition ratio (%), Setaria viridis (setaria viridis): 80%

Cn1c(=O)n(-c2cccc(Cl)c2)c(=O)c2cc(C(=O)C3=C(O)CCCC3=O)ccc21 [Compound 3]
herbicidal activity inhibition ratio (%), Echinochloa crusgalli (echinochloa crusgalli): 80%
herbicidal activity inhibition ratio (%), Amaranthus retroflexus (amaranthus retroflexus): 100%
herbicidal activity inhibition ratio (%), Abutilon theophrasti (abutilon theophrasti): 80%
herbicidal activity inhibition ratio (%), Digitaria sanguinalis (digitaria sanguinalis): 70%
herbicidal activity inhibition ratio (%), Eclipta prostrata (eclipta prostrata): 80%
herbicidal activity inhibition ratio (%), Setaria viridis (setaria viridis): 100%

COc1cccc(Cn2c(=O)n(-c3ccccc3C)c(=O)c3cc(C(=O)C4=C(O)CCCC4=O)ccc32)c1 [Compound 84]
herbicidal activity inhibition ratio (%), Echinochloa crusgalli (echinochloa crusgalli): 50%
herbicidal activity inhibition ratio (%), Amaranthus retroflexus (amaranthus retroflexus): 0%
herbicidal activity inhibition ratio (%), Abutilon theophrasti (abutilon theophrasti): 0%
herbicidal activity inhibition ratio (%), Digitaria sanguinalis (digitaria sanguinalis): 25%
herbicidal activity inhibition ratio (%), Eclipta prostrata (eclipta prostrata): 80%
herbicidal activity inhibition ratio (%), Setaria viridis (setaria viridis): 10%

COc1ccccc1-n1c(=O)c2c(C)c(C(=O)C3=C(O)CCCC3=O)ccc2n(C)c1=O [Compound 88]
herbicidal activity inhibition ratio (%), Echinochloa crusgalli (echinochloa crusgalli): 100%
herbicidal activity inhibition ratio (%), Amaranthus retroflexus (amaranthus retroflexus): 100%
herbicidal activity inhibition ratio (%), Abutilon theophrasti (abutilon theophrasti): 100%
herbicidal activity inhibition ratio (%), Digitaria sanguinalis (digitaria sanguinalis): 100%
herbicidal activity inhibition ratio (%), Eclipta prostrata (eclipta prostrata): 100%
herbicidal activity inhibition ratio (%), Setaria viridis (setaria viridis): 100%

Cn1c(=O)n(-c2ccccc2OC(F)(F)F)c(=O)c2cc(C(=O)C3=C(O)CCCC3=O)ccc21 [Compound 39]
herbicidal activity inhibition ratio (%), Echinochloa crusgalli (echinochloa crusgalli): 70%
herbicidal activity inhibition ratio (%), Amaranthus retroflexus (amaranthus retroflexus): 98%
herbicidal activity inhibition ratio (%), Abutilon theophrasti (abutilon theophrasti): 95%
herbicidal activity inhibition ratio (%), Digitaria sanguinalis (digitaria sanguinalis): 85%
herbicidal activity inhibition ratio (%), Eclipta prostrata (eclipta prostrata): 85%
herbicidal activity inhibition ratio (%), Setaria viridis (setaria viridis): 80%

Cc1ccccc1-n1c(=O)c2cc(C(=O)C3=C(O)CCCC3=O)ccc2n(CC(C)C)c1=O [Compound 75]
herbicidal activity inhibition ratio (%), Echinochloa crusgalli (echinochloa crusgalli): 0%
herbicidal activity inhibition ratio (%), Amaranthus retroflexus (amaranthus retroflexus): 20%
herbicidal activity inhibition ratio (%), Abutilon theophrasti (abutilon theophrasti): 90%
herbicidal activity inhibition ratio (%), Digitaria sanguinalis (digitaria sanguinalis): 0%
herbicidal activity inhibition ratio (%), Eclipta prostrata (eclipta prostrata): 20%
herbicidal activity inhibition ratio (%), Setaria viridis (setaria viridis): 10%

CCCCn1c(=O)n(-c2ccccc2C)c(=O)c2cc(C(=O)C3=C(O)CCCC3=O)ccc21 [Compound 73]
herbicidal activity inhibition ratio (%), Echinochloa crusgalli (echinochloa crusgalli): 0%
herbicidal activity inhibition ratio (%), Amaranthus retroflexus (amaranthus retroflexus): 30%
herbicidal activity inhibition ratio (%), Abutilon theophrasti (abutilon theophrasti): 50%
herbicidal activity inhibition ratio (%), Digitaria sanguinalis (digitaria sanguinalis): 0%
herbicidal activity inhibition ratio (%), Eclipta prostrata (eclipta prostrata): 0%
herbicidal activity inhibition ratio (%), Setaria viridis (setaria viridis): 10%

Cn1c(=O)n(-c2ccc(F)cc2)c(=O)c2cc(C(=O)C3=C(O)CC(C)(C)CC3=O)ccc21 [Compound 22]
herbicidal activity inhibition ratio (%), Echinochloa crusgalli (echinochloa crusgalli): 80%
herbicidal activity inhibition ratio (%), Amaranthus retroflexus (amaranthus retroflexus): 100%
herbicidal activity inhibition ratio (%), Abutilon theophrasti (abutilon theophrasti): 100%
herbicidal activity inhibition ratio (%), Digitaria sanguinalis (digitaria sanguinalis): 95%
herbicidal activity inhibition ratio (%), Eclipta prostrata (eclipta prostrata): 90%
herbicidal activity inhibition ratio (%), Setaria viridis (setaria viridis): 95%

Cn1c(=O)n(-c2cccc(C(F)(F)F)c2)c(=O)c2cc(C(=O)C3=C(O)CC(C)(C)CC3=O)ccc21 [Compound 51]
herbicidal activity inhibition ratio (%), Echinochloa crusgalli (echinochloa crusgalli): 50%
herbicidal activity inhibition ratio (%), Amaranthus retroflexus (amaranthus retroflexus): 90%
herbicidal activity inhibition ratio (%), Abutilon theophrasti (abutilon theophrasti): 93%
herbicidal activity inhibition ratio (%), Digitaria sanguinalis (digitaria sanguinalis): 83%
herbicidal activity inhibition ratio (%), Eclipta prostrata (eclipta prostrata): 80%
herbicidal activity inhibition ratio (%), Setaria viridis (setaria viridis): 40%

Cc1ccccc1-n1c(=O)[nH]c2ccc(C(=O)C3=C(O)CC(C)(C)CC3=O)cc2c1=O [Compound 59]
herbicidal activity inhibition ratio (%), Echinochloa crusgalli (echinochloa crusgalli): 0%
herbicidal activity inhibition ratio (%), Amaranthus retroflexus (amaranthus retroflexus): 30%
herbicidal activity inhibition ratio (%), Abutilon theophrasti (abutilon theophrasti): 0%
herbicidal activity inhibition ratio (%), Digitaria sanguinalis (digitaria sanguinalis): 0%
herbicidal activity inhibition ratio (%), Eclipta prostrata (eclipta prostrata): 25%
herbicidal activity inhibition ratio (%), Setaria viridis (setaria viridis): 10%

C#CCn1c(=O)n(-c2ccccc2C)c(=O)c2cc(C(=O)C3=C(O)CC(C)(C)CC3=O)ccc21 [Compound 78]
herbicidal activity inhibition ratio (%), Echinochloa crusgalli (echinochloa crusgalli): 0%
herbicidal activity inhibition ratio (%), Amaranthus retroflexus (amaranthus retroflexus): 0%
herbicidal activity inhibition ratio (%), Abutilon theophrasti (abutilon theophrasti): 0%
herbicidal activity inhibition ratio (%), Digitaria sanguinalis (digitaria sanguinalis): 0%
herbicidal activity inhibition ratio (%), Eclipta prostrata (eclipta prostrata): 0%
herbicidal activity inhibition ratio (%), Setaria viridis (setaria viridis): 10%

CC1CC(=O)C(C(=O)c2ccc3c(c2)c(=O)n(-c2ccc(Cl)cc2Cl)c(=O)n3C)=C(O)C1 (stereo not drawn) [Compound 64]
herbicidal activity inhibition ratio (%), Echinochloa crusgalli (echinochloa crusgalli): 90%
herbicidal activity inhibition ratio (%), Amaranthus retroflexus (amaranthus retroflexus): 80%
herbicidal activity inhibition ratio (%), Abutilon theophrasti (abutilon theophrasti): 95%
herbicidal activity inhibition ratio (%), Digitaria sanguinalis (digitaria sanguinalis): 60%
herbicidal activity inhibition ratio (%), Eclipta prostrata (eclipta prostrata): 0%
herbicidal activity inhibition ratio (%), Setaria viridis (setaria viridis): 93%
